The values that follow come from ChEMBL document CHEMBL5113449, “Evaluation of aminopyrrolidine amide to improve chloride transport in CFTR-defective cells” (Bioorg Med Chem Lett, 2022).

Calls of active or inactive are those of the source. No cut-off for these calls is given here.

Series [1] has as its system CFBE41o-. Description: Restoration of CFTR chloride channel activity in human CFBE41o- cells expressing CFTR P.Phe508del mutant assessed as increase in transcription of CFTR P.Phe508del mutant mRNA expression by RT-qPCR analysis. It is filed as functional, cell-based. Background: Quantitative PCR measures a nucleic acid by following its amplification.
For the next series, the system named is BHK. As to the kind of experiment: Restoration of CFTR chloride channel activity in […] BHK cells expressing 3HA-epitope tagged CFTR P.Phe508del mutant assessed as increase in exportation of mutant CFTR to membrane by measuring mature CFTR by immunoblot analysis. The format is functional, cell-based.
Series [2] has as its system CFBE41o-. Description: Induction of UPR in human CFBE41o- cells expressing CFTR P.Phe508del mutant assessed as upregulation of IRE1 mRNA expression by RT-PCR analysis. The format is functional, cell-based.
The subject of series [3] is CFBE41o-. Description: Induction of UPR in human CFBE41o- cells expressing CFTR P.Phe508del mutant assessed as upregulation of PERK mRNA expression by RT-PCR analysis. The format is functional, cell-based.
Series [4] deals with CFBE41o-. As to the kind of experiment: Upregulation of BiP protein expression in human CFBE41o- cells expressing CFTR P.Phe508del mutant by Western blot analysis. The format is functional, cell-based.
The test system of series [5] is CFBE41o-. As to the kind of experiment: Induction of UPR in human CFBE41o- cells expressing CFTR P.Phe508del mutant assessed as upregulation of XBP1 mRNA expression by RT-PCR analysis. It is filed as functional, cell-based.
For series [6], the system named is CFBE41o-. Description: Upregulation of cleaved form of ATF6 protein expression in human CFBE41o- cells expressing CFTR P.Phe508del mutant by Western blot analysis. The format is functional, cell-based. (In general: In western blotting, separated proteins are transferred to a membrane and probed.)
The test system of series [7] is CFBE41o-. Description: Upregulation of ATF6 protein expression in human CFBE41o- cells expressing CFTR P.Phe508del mutant by Western blot analysis. The format is functional, cell-based.
Series [8] can be described thus: Restoration of CFTR chloride channel activity in human CFBE41o- cells expressing CFTR P.Phe508del mutant assessed as increase in channel function by measuring Cl- current at 10 uM at -80 mV holding potential incubated for 48 hrs by whole cell patch clamp assay (reference value: 32.98 +/- 14.71 pA/pF). The format is functional. A general note: Patch clamp records ionic current or voltage across a cell membrane.

Series [9] can be described thus: Cytotoxicity against human CFBE41o- cells expressing CFTR P.Phe508del mutant at 10 uM incubated for 48 hrs by MTT assay. The format is toxicity, cell-based.

For `CCN(CC)Cc1ccc(C(=O)N(CCc2ccccc2OC)[C@@H]2CCNC2)cc1`, the result in the series on CFBE41o- [1], in the series with BHK, in the series on CFBE41o- [2], in the series with CFBE41o- [3], in the series on CFBE41o- [4] and with CFBE41o- [5] was Active. Also, the outcome in the series on CFBE41o- [6] and with CFBE41o- [7] was Active. Further, the Activity is on record as 82.67 pA/pF in series [8] and “Non-Toxic” in [9].
